Assay results taken from the supplement of paper PMC10307832.

Assays:
Test in all cases: relative viability (nuclei count vs DMSO), 5 days (fraction); higher = more cells survive
[1] = compound: COCC[n+]1c2c(n(Cc3cnccn3)c1C)C(=O)c1ccccc1C2=O [YM155] + COc1cccc2cc(-c3nc([C@H]4CC[C@H](C(=O)O)CC4)n4ncnc(N)c34)[nH]c12 [OSI-027] (partner 0.5 µM)
Summary of the method: (§1)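 Relative viability was taken as the ratio of nuclei in treated wells to nuclei in vehicle wells. Lung cancer cell lines in 1536-well plates received compounds by pin tool one day after seeding, either one drug alone or a fixed anchor-drug dose plus five library-drug doses (not always all listed) in √10 steps. Nuclei were counted on 4× images after 5 days of treatment, and values are medians of duplicate plates.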

[2] = compound: COCC[n+]1c2c(n(Cc3cnccn3)c1C)C(=O)c1ccccc1C2=O [YM155] + Nc1ncn([C@H]2C[C@H](O)[C@@H](CO)O2)c(=O)n1 [Decitabine] (partner 2 µM)
Summary of the method: as §1

[3] = compound: CC(C)(C)c1cc(NC(=O)Nc2ccc(-c3cn4c(n3)sc3cc(OCCN5CCOCC5)ccc34)cc2)no1 [Quizartinib] + Nc1nc2[nH]cc(CCc3ccc(C(=O)N[C@@H](CCC(=O)O)C(=O)O)cc3)c2c(=O)[nH]1 [Pemetrexed] (partner 0.2 µM)
Summary of the method: as §1

[4] = compound: COCC[n+]1c2c(n(Cc3cnccn3)c1C)C(=O)c1ccccc1C2=O [YM155] + O=C(c1cc(Cc2n[nH]c(=O)c3ccccc23)ccc1F)N1CCN(C(=O)C2CC2)CC1 [Olaparib] (partner 8 µM)
Summary of the method: as §1

Cell Line	relative viability ([1]; first compound 0.002 µM)	relative viability ([1]; first compound 0.006325 µM)	relative viability ([1]; first compound 0.02 µM)	relative viability ([1]; first compound 0.06325 µM)	relative viability ([2]; first compound 0.002 µM)	relative viability ([2]; first compound 0.006325 µM)	relative viability ([2]; first compound 0.02 µM)	relative viability ([2]; first compound 0.06325 µM)	relative viability ([3]; first compound 0.001 µM)	relative viability ([3]; first compound 0.003162 µM)	relative viability ([3]; first compound 0.01 µM)	relative viability ([3]; first compound 0.03162 µM)	relative viability ([3]; first compound 0.1 µM)	relative viability ([4]; first compound 0.002 µM)	relative viability ([4]; first compound 0.006325 µM)	relative viability ([4]; first compound 0.02 µM)	relative viability ([4]; first compound 0.06325 µM)
NCI-H2009	0.567	0.604	0.647	0.382	0.342	0.383	0.362	0.36	0.946	0.932	1.05	1.02	1.07	0.66	0.673	0.582	0.337
NCI-H2023	0.442	0.455	0.403	0.195	0.224	0.201	0.193	0.184	0.209	0.215	0.295	–	0.244	0.558	0.468	0.379	0.325
NCI-H2085	0.742	0.783	0.809	0.421	0.594	0.557	0.54	0.471	0.82	0.879	0.97	0.836	0.833	0.737	0.755	0.805	0.516
NCI-H2087	0.492	0.567	0.715	0.618	0.37	0.282	0.245	0.293	0.66	0.536	0.71	0.661	0.651	0.547	0.589	0.586	0.49
NCI-H2126	0.645	0.714	0.761	0.727	0.53	0.624	0.59	0.6	0.682	0.658	0.765	0.663	0.689	0.884	0.921	0.935	0.946
NCI-H2170	0.698	0.785	0.695	0.74	0.506	0.508	0.42	0.516	0.252	0.242	0.279	0.293	0.277	0.605	0.583	0.668	0.62
NCI-H2342	0.555	0.701	0.666	0.623	0.729	0.709	0.788	0.717	0.745	0.83	0.774	0.746	0.778	0.356	0.386	0.473	0.445
NCI-H2347	0.371	0.504	0.421	0.421	0.64	0.612	0.648	0.539	0.426	0.382	0.45	0.443	0.456	0.536	0.489	0.618	0.498
NCI-H2405	0.625	0.613	0.616	0.465	0.711	0.7	0.644	0.397	0.961	1.04	1.02	1.08	1.15	0.753	0.771	0.637	0.397
NCI-H3122	0.995	1	1.05	0.715	0.428	0.432	0.482	0.486	0.185	0.201	0.193	0.2	0.211	0.623	0.74	0.679	0.627
PC-3 [JPC-3]	0.784	0.783	0.808	0.809	0.778	0.796	0.89	0.701	0.845	1.12	0.852	1	1.17	1.12	1.19	1.1	0.796
PC-14	0.788	0.901	0.829	0.371	0.19	0.223	0.2	0.161	0.134	0.143	0.13	–	0.162	0.292	0.205	0.281	0.155
RERF-LC-KJ	0.663	0.637	0.618	0.633	0.649	0.644	0.787	0.737	0.458	0.493	0.48	0.457	0.492	0.825	0.801	0.95	0.858
SK-LU-1	0.358	0.316	0.396	0.348	0.57	0.695	0.63	0.506	0.875	0.912	1.08	0.975	0.993	0.422	0.442	0.516	0.327
SK-MES-1	0.582	0.712	0.628	0.19	0.423	0.289	0.285	0.21	0.939	0.904	0.981	0.563	0.817	0.707	0.574	0.258	0.189
SW 900	0.544	0.501	0.557	0.478	–	0.431	0.399	0.458	0.435	0.488	0.422	0.485	0.483	–	0.788	0.848	0.808
SW 1573	0.549	0.705	0.406	0.0803	0.369	0.461	0.243	0.136	0.872	0.75	0.826	–	0.848	0.5	0.409	0.21	0.0835
UMC-11	0.465	0.499	0.514	0.465	0.551	0.574	0.725	0.626	0.676	0.787	0.864	0.771	0.818	0.389	0.374	0.595	0.386
